According to ChEMBL document CHEMBL1201862, “PubChem BioAssay data set” (2004):
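Grown in 96-well plates, cells were treated for 48 hours with each compound at five concentrations. Insufficient inhibition: endpoint recorded as highest concentration tested. At the GI50, growth is halved.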 Active and inactive are the calls of the source. No stated cut-off is given here; in the data, active = GI50 up to about 1.1 µM and inactive = higher.

Experiments:
Experiment in all cases: NCI-60 cell line screen, 48 h
A549 = system: A549
CCRF-CEM = system: CCRF-CEM
DLD-1 = system: DLD-1
HCT-116 = system: HCT-116
HCT-15 = system: HCT-15
K562 = system: K562
NCI-H460 = system: NCI-H460
NCI-H522 = system: NCI-H522
OVCAR-3 = system: OVCAR-3
OVCAR-8 = system: OVCAR-8
SK-MEL-2 = system: SK-MEL-2
U-251 = system: U-251
Malme-3M = system: Malme-3M
RPMI-8226 = system: RPMI-8226
A498 = system: A498
Hs-578T = system: Hs-578T
MDA-MB-231 = system: MDA-MB-231
NCI/ADR-RES = system: NCI/ADR-RES
PC-3 = system: PC-3
T47D = system: T47D

Row | Compound | GI50 (A549) | GI50 (CCRF-CEM) | GI50 (DLD-1) | GI50 (HCT-116) | GI50 (HCT-15) | GI50 (K562) | GI50 (NCI-H460) | GI50 (NCI-H522) | GI50 (OVCAR-3) | GI50 (OVCAR-8) | GI50 (SK-MEL-2) | GI50 (U-251) | GI50 (Malme-3M) | GI50 (RPMI-8226) | GI50 (A498) | GI50 (Hs-578T) | GI50 (MDA-MB-231) | GI50 (NCI/ADR-RES) | GI50 (PC-3) | GI50 (T47D)
1 | COc1ccc2cc1Oc1ccc(cc1)CC1c3cc4c(cc3CCN1C)Oc1c(OC)cc3c(c1O4)C(C2)N(C)CC3 (stereo not drawn) | 4.71 µM (inactive) | 1.32 µM (inactive) | 2.96 µM (inactive) | 1.7 µM (inactive) | 2.42 µM | 1.75 µM (inactive) | 1.76 µM (inactive) | 2.11 µM (inactive) | 5.81 µM (inactive) | 2.12 µM (inactive) | 2.8 µM (inactive) | 2.26 µM (inactive) |  |  |  |  |  |  |  | 
2 | O=c1[nH]c(=O)n(C2CC(O)C(CO)O2)cc1C#Cc1cc(F)cc(F)c1 (stereo not drawn) | > 100 µM (inactive) | > 100 µM (inactive) | > 100 µM (inactive) |  | > 100 µM | > 100 µM (inactive) | > 100 µM (inactive) | > 100 µM (inactive) | > 100 µM (inactive) | > 100 µM (inactive) | > 100 µM (inactive) | > 100 µM (inactive) | > 100 µM (inactive) | > 100 µM (inactive) |  |  |  |  |  | 
3 | COC(=O)c1nc(C(=O)OC)c2c([nH]c3ccccc32)c1C(=O)OC | > 100 µM (inactive) | 71.1 µM (inactive) | 65.6 µM (inactive) | > 100 µM (inactive) | 53.5 µM |  | 46.1 µM (inactive) | > 10 µM (inactive) | > 100 µM (inactive) | > 100 µM (inactive) | > 100 µM (inactive) | 99.8 µM (inactive) | > 100 µM (inactive) |  | > 100 µM (inactive) |  |  |  |  | 
4 | CS(=O)(=O)c1c(N)c2nc(Cl)cn2c2nc3ccccc3nc12 | > 100 µM (inactive) | > 100 µM (inactive) | > 100 µM (inactive) | > 100 µM (inactive) | > 100 µM | > 100 µM (inactive) | > 100 µM (inactive) | 48 µM (inactive) | > 100 µM (inactive) | 57.8 µM (inactive) | > 100 µM (inactive) | > 100 µM (inactive) | > 100 µM (inactive) | > 100 µM (inactive) |  |  |  |  |  | 
5 | COc1cccc(N2C(=O)C3CC(CC(C)(C)C)c4c([nH]c5ccccc45)C3C2=O)c1 (stereo not drawn) | > 10 µM (inactive) | > 10 µM (inactive) |  | 4.93 µM (inactive) | > 10 µM | > 10 µM (inactive) | 6.47 µM (inactive) | > 10 µM (inactive) | > 10 µM (inactive) | 3.56 µM (inactive) | > 10 µM (inactive) | 7.91 µM (inactive) | 5.9 µM (inactive) | > 10 µM (inactive) | > 10 µM (inactive) | 3.5 µM (inactive) | 4.92 µM (inactive) | > 10 µM (inactive) | > 10 µM (inactive) | > 10 µM (inactive)
6 | CC1OC(c2ccc3c(c2O)C(=O)C2=C(C3=O)C3(O)C(=O)CC(C)(O)CC3(O)C=C2)CC(O)C1O (stereo not drawn) | 26.3 µM (inactive) | 2.05 µM (inactive) |  | 5.26 µM (inactive) | 14.5 µM | 2.7 µM (inactive) | 24.2 µM (inactive) | 2.34 µM (inactive) | 5.35 µM (inactive) | 14.1 µM (inactive) | 20.5 µM (inactive) | 16.7 µM (inactive) | 2.99 µM (inactive) | 9.73 µM (inactive) | 18.2 µM (inactive) | 20.1 µM (inactive) | 2.25 µM (inactive) | 19.5 µM (inactive) | 23.3 µM (inactive) | 11.5 µM (inactive)
7 | O=C1CC(C(O)(C(F)(F)F)C(F)(F)Cl)CCC1C(O)(C(F)(F)F)C(F)(F)Cl (stereo not drawn) | > 10 µM (inactive) | > 10 µM (inactive) |  | 7.19 µM (inactive) | > 10 µM | > 10 µM (inactive) | > 10 µM (inactive) | 8.77 µM (inactive) | > 10 µM (inactive) | > 10 µM (inactive) | 3.25 µM (inactive) | > 10 µM (inactive) | > 10 µM (inactive) | > 10 µM (inactive) | 6.58 µM (inactive) | > 10 µM (inactive) | > 10 µM (inactive) | > 10 µM (inactive) | 2.68 µM (inactive) | > 10 µM (inactive)
8 | COc1ccc(-c2nc(N)c(C#N)c3c2CCSc2ccc(C)cc2-3)cc1OC | 12.3 µM (inactive) | 4.12 µM (inactive) |  | 10.8 µM (inactive) | 9.4 µM | 1.24 µM (inactive) | 18.5 µM (inactive) | 5.89 µM (inactive) | 20.7 µM (inactive) | 22.4 µM (inactive) | 25.4 µM (inactive) | 18.1 µM (inactive) | 20.5 µM (inactive) | 0.594 µM (active) | 22.5 µM (inactive) | 8.2 µM (inactive) | 8.22 µM (inactive) | 12.3 µM (inactive) | 8.51 µM (inactive) | 4.17 µM (inactive)
